Test [1] has as its system transgenic C. elegans strain CL2659. As to the kind of experiment: β-amyloid test system: delay of paralysis in transgenic C. elegans strain CL2659 (Alzheimer testing). It is filed as in vivo, Caenorhabditis elegans. To be noted: CL2659 stage L3 larvae, 48 hours, tested at 1 mg/ml, 100 μg/ml, 10 μg/ml, — = no effect even at 1 mg/ml; for minimal effective concentration: Caenorhabditis elegans, read-out: Alzheimer: concentration range in which a delay in paralysis was observed. On the procedure:
For this purpose, stage L3 worm larvae were used at a density of 10-20 worms per well. The expression of β-amyloid in the muscle cells was induced by increasing the temperature, and the associated paralysis was recorded at regular intervals until the end of the test after 48 hours.
(§1) For this purpose, the above substances were tested at concentrations of 1 mg/ml, 100 μg/ml, and 10 μg/ml in comparison with quercetin as a […] control.

Test [2] concerns transgenic C. elegans strain NL5901. The test is described as follows: α-synuclein test system: reduction of α-synuclein-GFP expression in transgenic C. elegans strain NL5901 (Parkinson testing). Format: in vivo, Caenorhabditis elegans. The following applies: NL5901, GFP readout 24 to 48 hours, tested at 1 mg/ml, 100 μg/ml, 10 μg/ml, — = no effect even at 1 mg/ml; for minimal effective concentration: Caenorhabditis elegans, read-out: Parkinson: concentration range in which a reduction in α-synuclein expression was detectable. The method, then:
(§2) The same substances as above were tested in a 96-well procedure in the initially mentioned screening assay using the nematode Caenorhabditis elegans (Pretsch et al., see above) in a standardized α-synuclein test system using the transgenic C. elegans strain NL5901 for their potential suitability as an agent for treating Parkinson's disease. This worm strain expresses human α-synuclein bound to green fluorescent protein (GFP) in all muscle cells. GFP labeling allows a direct detection of expressed protein levels using a multiplate reader for 24 to 48 hours.
(§3) For this purpose, the substances were again tested at concentrations of 1 mg/ml, 100 μg/ml, and 10 μg/ml, but this time in comparison to the initially mentioned Parkinson therapeutic agent levodopa as a control.

The subject of test [3] is Caenorhabditis elegans. As to the kind of experiment: C. elegans nematode assay, overall rating over the Alzheimer and Parkinson tests. Format: in vivo. To be noted: for minimal effective concentration: Caenorhabditis elegans, read-out: Score. The method, then:
The substances (1) to (41) and (101) to (108), prepared in the above synthesis examples or purchased, were tested for their potential suitability as an agent for treating Alzheimer's disease in a 96-well procedure in the initially mentioned screening assay using the nematode Caenorhabditis elegans (Pretsch et al., see above) in a standardized β-amyloid test system using the transgenic C. elegans strain CL2659. For this purpose, stage L3 worm larvae were used at a density of 10-20 worms per well. The expression of β-amyloid in the muscle cells was induced by increasing the temperature, and the associated paralysis was recorded at regular intervals until the end of the test after 48 hours.
as §1, §2, §3

In test [4] the test system is mouse test model. To be noted: Parkinson's disease; cited from earlier work.
Test [5] relates to metallothioneins. The following applies: C. elegans nematode assay; cited from earlier work.
The mark [6] stands for this setting: rating from the effective concentration in both tests.

As to `NC1CCN(C(=O)CC(=O)OC23CC4CC(CC(C4)C2)C3)CC1` [(14), malonic acid adamantan-1-yl ester 4-aminopiperidine amide], the minimal effective concentration in test [1] is > 10 µg/mL; in test [2] it was > 10 µg/mL; in test [3] (setting [6]), 10 to 100 µg/mL.
Consider `NCCCC(=O)NC1CCN(C(=O)CC(=O)OC23CC4CC(CC(C4)C2)C3)CC1` [(15), malonic acid adamantan-1-yl ester (4-(4-aminobutyryl)amino)piperidine amide], for which the minimal effective concentration in test [1] is > 10 µg/mL; in test [2], > 10 µg/mL; in test [3] (setting [6]) it was 10 to 100 µg/mL.
As for `COC(=O)CC(=O)NC12CC3CC(CC(C3)C1)C2` [(16), malonic acid methyl ester N-(adamantan-1-yl)amide], the minimal effective concentration in test [1] is > 10 µg/mL; in test [2], > 10 µg/mL; in test [3] (setting [6]), 10 to 100 µg/mL.
Take `O=C(O)CC(=O)NC12CC3CC(CC(C3)C1)C2` [(17), N-(adamantan-1-yl)malonic acid amide]: the minimal effective concentration in test [1] is > 10 µg/mL; in test [2], > 10 µg/mL; in test [3] (setting [6]), 10 to 100 µg/mL.
Regarding `NCCCNC(=O)CC(=O)NC12CC3CC(CC(C3)C1)C2` [(18), N-adamantan-1-yl-N′-(3-aminopropyl)malonic acid diamide], the minimal effective concentration in test [1], in test [2] and in test [3] (setting [6]) was > 100 µg/mL in each case.
With `CN(CCCN)C(=O)CC(=O)NC12CC3CC(CC(C3)C1)C2` [(19), N-adamantan-1-yl-N′-(3-aminopropyl)-N′-methyl malonic acid diamide], the minimal effective concentration in test [1] was > 10 µg/mL; in test [2], > 10 µg/mL; in test [3] (setting [6]), 10 to 100 µg/mL.
`O=C(CC(=O)N1CCNCC1)NC12CC3CC(CC(C3)C1)C2` [(20), N-adamantan-1-yl-N′-piperazine malonic acid diamide]: the minimal effective concentration in test [1] is > 10 µg/mL; in test [2], > 10 µg/mL; in test [3] (setting [6]), 10 to 100 µg/mL.
As to `NCCCC(=O)N1CCN(C(=O)CC(=O)NC23CC4CC(CC(C4)C2)C3)CC1` [(21), N-adamantan-1-yl-N′-(4-(4-aminobutyryl)piperazine)malonic acid diamide], the minimal effective concentration was > 10 µg/mL in test [1], > 10 µg/mL in test [2] and 10 to 100 µg/mL in test [3] (setting [6]).
Regarding `NCCCNC(=O)CC(=O)N1CCCC2CCCCC21` (centres unmarked) [(24), N-(3-aminopropyl)-N′-decahydroquinoline malonic acid diamide], the minimal effective concentration in test [1] is > 10 µg/mL; in test [2], > 10 µg/mL; in test [3] (setting [6]), 10 to 100 µg/mL.
Take `NCCCNC(=O)CC(=O)N1CCC2CCCCC2C1` (centres unmarked) [(25), N-(3-aminopropyl)-N′-decahydroisoquinoline malonic acid diamide]: the minimal effective concentration is > 10 µg/mL in test [1], > 10 µg/mL in test [2] and 10 to 100 µg/mL in test [3] (setting [6]).
`CC1(C)C2CCC(CNC(=O)CC(=O)NCCCN)C1C2` (centres unmarked) [(26), N-(3-aminopropyl)-N′-(6,6-dimethylbicyclo[3.1.1]heptane-2-ylmethyl)malonic acid diamide]: the minimal effective concentration is > 10 µg/mL in test [1], > 10 µg/mL in test [2] and 10 to 100 µg/mL in test [3] (setting [6]).
Consider `CN(C)CCCNC(=O)CC(=O)OC12CC3CC(CC(C3)C1)C2` [(27), malonic acid adamantan-1-yl ester N-(3-dimethylaminopropyl)amide], for which the minimal effective concentration was > 10 µg/mL in test [1], > 10 µg/mL in test [2] and 10 to 100 µg/mL in test [3] (setting [6]).
Consider `O=C(CC(=O)OC12CC3CC(CC(C3)C1)C2)NCCCN1CCOCC1` [(28), malonic acid adamantan-1-yl ester N-(3-morpholinopropyl)amide], for which the values for the minimal effective concentration in test [1], in test [2] and in test [3] (setting [6]) were > 10 µg/mL, > 10 µg/mL and 10 to 100 µg/mL, respectively.
Turning to `CC12CC3CC(C)(C1)CC(NC(=O)CC(=O)O)(C3)C2` [(32), malonic acid N-(3,5-dimethyl)adamantan-1-yl amide], the minimal effective concentration is > 10 µg/mL in test [1], > 10 µg/mL in test [2] and 10 to 100 µg/mL in test [3] (setting [6]).
As for `CC12CC3CC(C)(C1)CC(NC(=O)CC(=O)NCCCN)(C3)C2` [(33), N-(3,5-dimethyladamantan-1-yl)-N′-(3-aminopropyl)malonic acid diamide], the minimal effective concentration in test [1] is > 10 µg/mL; in test [2], > 10 µg/mL; in test [3] (setting [6]) it was 10 to 100 µg/mL.
As to `CC12CC3CC(C)(C1)CC(NC(=O)CC(=O)NCCCN1CCOCC1)(C3)C2` [(34), N-(3,5-dimethyladamantan-1-yl)-N′-(3-morpholinopropyl)malonic acid diamide], the minimal effective concentration is > 10 µg/mL in test [1], > 10 µg/mL in test [2] and 10 to 100 µg/mL in test [3] (setting [6]).
Take `COc1ccccc1N1CCN(C(=O)CC(=O)NC23CC4CC(C)(CC(C)(C4)C2)C3)CC1` [(38), N-(3,5-dimethyladamantan-1-yl)-N′-4-(2-methoxyphenyl)piperazine malonic acid diamide]: the “Alzheimer: concentration range in which a delay in paralysis was observed” value in test [1] was >100 µg/mL. Also, in test [2], the “Parkinson: concentration range in which a reduction in α-synuclein expression was detectable” value is >100 µg/mL. The Score entry in test [3] (setting [6]) is “++ (a compound that is already effective at a concentration >10 μg/ml and therefore rated “++”)”.
Turning to `CC12CC3CC(C)(C1)CC(NC(=O)CC(=O)N1CCN(CC(=O)N4CCOCC4)CC1)(C3)C2` [(41), N-(3,5-dimethyladamantan-1-yl)-N′-4-(2-morpholino-2-oxoethyl)piperazine malonic acid diamide], the minimal effective concentration was > 10 µg/mL in test [1], > 10 µg/mL in test [2] and 10 to 100 µg/mL in test [3] (setting [6]). The “concentration from which the compound was effective” value in test [3] (both tests) is > 10 µg/mL.
In the case of `CC(C)(S)[C@@H](N)C(=O)O` [D-penicillamine, 2-amino-3-mercapto-3-methyl butanoic acid], the “neuroprotective effect / neurotoxicity” value in test [4] is on record as “did not show any neuroprotective effect”.
In the case of `Oc1c(I)cc(Cl)c2cccnc12` [clioquinol, 5-chloro-7-iodoquinolin-8-ol], in test [5], the “body's own biosynthesis of metallothioneins” value is given as “prolongation of the body's own biosynthesis of metallothioneins”.
On to `CCN(CC)C(=S)S` [diethyl dithiocarbamate, diethyldithiocarbamate], for which the “neuroprotective effect / neurotoxicity” value in test [4] was “higher neurotoxicity”.
For `Cc1cc(O)c2c(c1)C(=O)c1cc(O)cc(O)c1C2=O` [emodin, 1,3,8-trihydroxy-6-methylanthracene-9,10-dione], the “body's own biosynthesis of metallothioneins” value in test [5] is recorded as “prolongation of the body's own biosynthesis of metallothioneins”.

These data come from US20260174721A1, “AGENT FOR RESTORING METAL HOMEOSTASIS” (Oxford Antibiotic Group GmbH, priority 2022, published 2026).
